Test results reported in patent US20240124434A1, “ATF6 INHIBITORS AND USES THEREOF” (Altos Labs, Inc., priority 2018, published 2024).
Converted amounts (≈) assume the structure as drawn. Read-outs that look alike come from different tables or passages of the source.

Assays:
ATF6 = assay: ERSE ATF6-luciferase reporter assay (thapsigargin-induced ER stress); assay type: cell-based, human; details: thapsigargin-induced ER stress, U2-OS ATF6 luc reporter cells; for IC50: dose-response 30 μM to 1 nM, read-out: IC50 ATF6-Luc reporter; for inhibition at 1 µM: read-out: Inh. ATF6-Luc @ 1 μM [%]
[1] = In vitro microsomal stability, human liver microsomes; assay type: in vitro ADME; details: for Rem. @ hLM (%): remaining fraction after 30 min, 1 mM NADPH; for half-life at […], 1 µM: human, read-out: T1/2 @ hLM; for half-life at […], 1 µM / microsomal CLint at […], 1 µM: pH 7.4; for microsomal CLint at […], 1 µM: read-out: Clint @ hLM
Procedure, shortened: (§1)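 1 μM compound was incubated at 37 °C with 0.5 mg/mL human, mouse or rat liver microsomes and 1 mM NADPH in 100 mM phosphate buffer pH 7.4. Reactions were stopped at 0, 5, 15 and 30 min with cold acetonitrile containing propranolol internal standard.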

[2] = In vitro microsomal stability, mouse liver microsomes; assay type: in vitro ADME; details: for Rem. @ mLM (%): remaining fraction after 30 min, 1 mM NADPH; for half-life at […], 1 µM: mouse, read-out: T1/2 @ mLM; for half-life at […], 1 µM / microsomal CLint at […], 1 µM: pH 7.4; for microsomal CLint at […], 1 µM: read-out: Clint @ mLM
Procedure, shortened: as §1

[3] = In vitro microsomal stability, rat liver microsomes; assay type: in vitro ADME; details: for Rem. @ rLM (%): remaining fraction after 30 min, 1 mM NADPH; for microsomal CLint at […], 1 µM: read-out: Clint @ rLM
Procedure, shortened: as §1

[4] = Kinetic solubility (nephelometry); assay type: physicochemical; details: PBS pH 7.4, 1% DMSO, 1 hour at 37° C., light scattering at 625 nm
Procedure: Concentration (μM) was then calculated by segmental regression. Amiodarone (#A8423 Aldrich) was used as positive control.

CYP1A2 = CYP1A2 (Homo sapiens (Human), UniProt P05177); assay: CYP inhibition in human liver microsomes
Sequence of CYP1A2 (P05177 whole entry, canonical isoform): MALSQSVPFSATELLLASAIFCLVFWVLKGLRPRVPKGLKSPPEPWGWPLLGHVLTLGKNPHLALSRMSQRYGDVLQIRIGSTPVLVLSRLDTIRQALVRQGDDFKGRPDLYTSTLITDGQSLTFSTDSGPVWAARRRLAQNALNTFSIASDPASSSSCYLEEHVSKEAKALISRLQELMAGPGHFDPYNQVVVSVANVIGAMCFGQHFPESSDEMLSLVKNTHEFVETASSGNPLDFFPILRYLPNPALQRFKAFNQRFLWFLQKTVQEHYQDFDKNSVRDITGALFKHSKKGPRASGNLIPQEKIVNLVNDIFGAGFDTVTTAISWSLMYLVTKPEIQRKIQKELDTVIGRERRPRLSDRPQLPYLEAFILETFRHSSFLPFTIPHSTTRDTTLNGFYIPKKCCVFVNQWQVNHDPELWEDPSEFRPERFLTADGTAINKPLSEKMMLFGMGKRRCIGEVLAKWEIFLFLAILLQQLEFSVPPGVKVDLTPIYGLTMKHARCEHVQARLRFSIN
Procedure: (§2) CYP inhibition by test compounds in human liver microsomes (HLM) for seven major CYP450 isoforms CYP1A2, CYP2C9, CYP2D6, CYP2B6, CYP2C8, CYP2C19 and CYP3A4 were assessed. […] 50 μM phenacetin, 2 μM midazolam, 5 μM diclofenac, 50 μM mephenytoin, 80 μM bupropion, and 5 μM dextromethorphan were used as probe substrates of CYP1A2, CYP3A4, CYP2C9, CYP2C19, CYP2B6, and CYP2D6, respectively. The incubation times were 20 min for […], CYP2D6, CYP2C9, CYP2B6, and CYP2C8; 40 min for CYP2C19; and 10 min for CYP 3A4. Following incubations, the reactions were terminated with acetonitrile containing internal standard. The samples were centrifuged and the supernatants were analyzed for the formation of metabolites (1-hydroxymidazolam (CYP3A4), 4-hydroxydiclofenac (CYP2C9), 4-hydroxymephenytoin (CYP2C19) and dextrorphan (CYP2D6), hydroxybupropion (CYP2B6), acetaminophen (CYP1A2), desethylamodiaquine (CYP2C8)) by LC/MS/MS.

CYP2B6 = CYP2B6 (Homo sapiens (Human), UniProt P20813); assay: CYP inhibition in human liver microsomes
Sequence of CYP2B6 (P20813 whole entry): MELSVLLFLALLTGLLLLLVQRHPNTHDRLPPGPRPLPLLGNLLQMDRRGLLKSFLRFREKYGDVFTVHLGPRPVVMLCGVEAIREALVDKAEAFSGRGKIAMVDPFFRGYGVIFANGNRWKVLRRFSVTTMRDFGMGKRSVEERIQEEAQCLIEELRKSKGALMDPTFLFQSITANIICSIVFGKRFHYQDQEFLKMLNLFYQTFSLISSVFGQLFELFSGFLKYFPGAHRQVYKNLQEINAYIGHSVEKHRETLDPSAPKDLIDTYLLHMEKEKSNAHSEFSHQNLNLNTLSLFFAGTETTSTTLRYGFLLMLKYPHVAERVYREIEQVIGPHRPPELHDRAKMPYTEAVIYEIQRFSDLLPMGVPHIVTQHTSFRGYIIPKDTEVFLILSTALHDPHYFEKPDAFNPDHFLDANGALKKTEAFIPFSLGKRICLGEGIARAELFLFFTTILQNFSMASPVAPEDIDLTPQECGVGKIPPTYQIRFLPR
Procedure: as §2

CYP2C9 = CYP2C9 (Homo sapiens (Human), UniProt P11712); assay: CYP inhibition in human liver microsomes
Sequence of CYP2C9 (P11712 whole entry): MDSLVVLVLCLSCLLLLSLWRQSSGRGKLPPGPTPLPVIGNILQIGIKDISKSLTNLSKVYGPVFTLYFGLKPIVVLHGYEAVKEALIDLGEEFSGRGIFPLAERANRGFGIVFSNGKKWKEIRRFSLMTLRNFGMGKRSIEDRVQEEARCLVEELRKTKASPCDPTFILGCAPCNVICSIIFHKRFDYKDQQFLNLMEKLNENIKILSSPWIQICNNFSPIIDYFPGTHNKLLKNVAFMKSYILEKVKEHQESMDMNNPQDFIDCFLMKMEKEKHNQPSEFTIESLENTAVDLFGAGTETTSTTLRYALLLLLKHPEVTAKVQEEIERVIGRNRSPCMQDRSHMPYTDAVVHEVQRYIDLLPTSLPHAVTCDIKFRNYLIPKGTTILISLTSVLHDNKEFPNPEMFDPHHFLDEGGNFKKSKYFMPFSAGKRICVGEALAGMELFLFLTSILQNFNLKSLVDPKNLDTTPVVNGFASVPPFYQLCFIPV
Procedure: as §2

CYP2D6 = CYP2D6 (Homo sapiens (Human), UniProt P10635); assay: CYP inhibition in human liver microsomes
Sequence of CYP2D6 (P10635 whole entry): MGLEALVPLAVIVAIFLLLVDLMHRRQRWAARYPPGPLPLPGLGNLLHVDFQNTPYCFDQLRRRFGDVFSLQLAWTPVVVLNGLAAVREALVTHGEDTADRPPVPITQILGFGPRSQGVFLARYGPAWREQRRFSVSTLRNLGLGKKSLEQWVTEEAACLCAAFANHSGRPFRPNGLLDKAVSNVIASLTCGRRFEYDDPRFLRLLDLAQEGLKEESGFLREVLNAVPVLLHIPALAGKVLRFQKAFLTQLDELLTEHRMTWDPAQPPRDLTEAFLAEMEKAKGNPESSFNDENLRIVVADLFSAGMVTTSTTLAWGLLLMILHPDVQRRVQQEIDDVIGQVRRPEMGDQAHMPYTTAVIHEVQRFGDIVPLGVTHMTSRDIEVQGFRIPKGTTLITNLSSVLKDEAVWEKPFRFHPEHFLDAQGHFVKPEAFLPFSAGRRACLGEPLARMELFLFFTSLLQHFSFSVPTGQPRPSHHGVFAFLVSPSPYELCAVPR
Procedure: as §2

CYP3A4 = CYP3A4 (Homo sapiens (Human), UniProt P08684); assay: CYP inhibition in human liver microsomes; details: read-out: CYP-3A4; human liver microsomes; probe substrate midazolam
Sequence of CYP3A4 (P08684 whole entry): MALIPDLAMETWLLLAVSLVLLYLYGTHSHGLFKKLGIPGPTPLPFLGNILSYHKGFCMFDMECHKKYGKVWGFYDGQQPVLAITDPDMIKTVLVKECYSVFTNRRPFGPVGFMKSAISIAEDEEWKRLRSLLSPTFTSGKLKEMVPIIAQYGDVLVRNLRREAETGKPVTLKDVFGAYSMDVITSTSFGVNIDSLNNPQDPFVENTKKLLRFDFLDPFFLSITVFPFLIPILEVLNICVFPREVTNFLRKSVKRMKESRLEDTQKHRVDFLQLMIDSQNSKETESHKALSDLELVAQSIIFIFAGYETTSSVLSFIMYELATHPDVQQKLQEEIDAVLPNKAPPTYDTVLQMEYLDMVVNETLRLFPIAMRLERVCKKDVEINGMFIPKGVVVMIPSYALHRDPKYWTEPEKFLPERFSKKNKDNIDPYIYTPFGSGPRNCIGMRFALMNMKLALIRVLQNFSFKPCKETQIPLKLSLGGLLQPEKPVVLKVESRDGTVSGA
Procedure: as §2

[5] = Oral bioavailability and PK parameters in Balb/c mice; details: single oral dose 10 mg/kg
CYP2C19 = CYP2C19 (Homo sapiens (Human), UniProt P33261); assay: CYP inhibition in human liver microsomes; details: read-out: CYP-2C19; human liver microsomes; probe substrate mephenytoin
Sequence of CYP2C19 (P33261 whole entry): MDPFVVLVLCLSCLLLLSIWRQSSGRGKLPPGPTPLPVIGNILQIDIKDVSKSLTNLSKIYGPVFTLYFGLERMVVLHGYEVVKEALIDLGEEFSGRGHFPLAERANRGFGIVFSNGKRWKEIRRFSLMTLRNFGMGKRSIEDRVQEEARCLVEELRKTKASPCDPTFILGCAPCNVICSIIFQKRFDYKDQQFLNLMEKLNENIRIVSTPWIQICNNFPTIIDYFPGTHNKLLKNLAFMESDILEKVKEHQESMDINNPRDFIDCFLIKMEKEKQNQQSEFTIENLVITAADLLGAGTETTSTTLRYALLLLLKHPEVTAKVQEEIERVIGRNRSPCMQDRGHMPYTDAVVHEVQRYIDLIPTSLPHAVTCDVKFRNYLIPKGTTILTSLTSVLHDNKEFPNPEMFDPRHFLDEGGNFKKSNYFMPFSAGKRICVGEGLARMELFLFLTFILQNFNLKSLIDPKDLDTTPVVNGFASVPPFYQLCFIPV
Procedure: as §2

CYP2C8 = CYP2C8 (Homo sapiens (Human), UniProt P10632); assay: CYP inhibition in human liver microsomes; details: read-out: CYP-2C8, metabolite desethylamodiaquine
Sequence of CYP2C8 (P10632 whole entry): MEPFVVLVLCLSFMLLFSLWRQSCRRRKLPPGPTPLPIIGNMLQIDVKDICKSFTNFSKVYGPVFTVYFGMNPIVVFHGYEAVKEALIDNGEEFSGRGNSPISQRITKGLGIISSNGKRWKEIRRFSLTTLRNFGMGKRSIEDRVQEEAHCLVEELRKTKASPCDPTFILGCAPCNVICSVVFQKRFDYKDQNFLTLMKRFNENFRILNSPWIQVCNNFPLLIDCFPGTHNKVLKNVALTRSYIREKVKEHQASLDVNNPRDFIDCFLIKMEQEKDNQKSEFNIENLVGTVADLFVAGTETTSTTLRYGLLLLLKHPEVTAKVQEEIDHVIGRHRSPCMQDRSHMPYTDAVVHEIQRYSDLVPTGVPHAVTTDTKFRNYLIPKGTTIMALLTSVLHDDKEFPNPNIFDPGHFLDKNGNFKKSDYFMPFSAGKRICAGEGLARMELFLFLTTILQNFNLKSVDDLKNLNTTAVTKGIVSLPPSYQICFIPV
Procedure: as §2

[6] = intrinsic clearance, human liver microsomes
[7] = 1 μM compound, 0.5 mg/mL human liver microsomes
[8] = intrinsic clearance, mouse liver microsomes
[9] = 1 μM compound, 0.5 mg/mL mouse liver microsomes
[10] = 1 μM compound, 0.5 mg/mL rat liver microsomes
[11] = Homo sapiens, U2OS, 1 μM test compound, 8 hr
[12] = pH 7.4, intrinsic clearance, rat liver microsomes
[13] = rat, rat liver microsomes, pH 7.4, read-out: T1/2 @ rLM
[14] = read-out: CYP-1A2, human liver microsomes, probe substrate phenacetin
[15] = read-out: CYP-2B6, human liver microsomes, probe substrate bupropion
[16] = read-out: CYP-2C9, human liver microsomes, probe substrate diclofenac
[17] = read-out: CYP-2D6, human liver microsomes, probe substrate dextromethorphan

Q: For `O=C(Nc1cnn(Cc2ccc(C(F)(F)F)cc2C(F)(F)F)c1)c1cc(-c2ccco2)on1` [Ceapin-A7, reference compound], which “Inh. ATF6-Luc @ 1 μM [%]” value (ATF6; 1 μM test compound, 8 hr) is on record?
A: Its value is “+++ (+++ refers to >50% inhibition at 1 μM test compound)”.

Q: What about the IC50 (ATF6) of the same compound?
A: Its IC50 is under 1 µM.

Q: What about the “T1/2 @ hLM” value ([1]; half-life, 1 μM compound, 0.5 mg/mL human liver microsomes) of the same compound?
A: The value was 0.36 h.

Q: And the “Clint @ hLM” value [1, 6]?
A: The value was 64.2 µL/min/mg.

Q: And the “Rem. @ hLM (%)” value [1, 7]?
A: Its value is 35.4%.

Q: And the “T1/2 @ mLM” value ([2]; half-life, 1 μM compound, 0.5 mg/mL mouse liver microsomes)?
A: The value was 9.84 min.

Q: What about the “Clint @ mLM” value [2, 8] of the same compound?
A: Its value is 141 µL/min/mg.

Q: What about the “Rem. @ mLM (%)” value [2, 9] of the same compound?
A: Its value is 12%.

Q: And the “T1/2 @ rLM” value ([3]; half-life, 1 μM compound, 0.5 mg/mL rat liver microsomes)?
A: Its value is 0.19 h.

Q: What about the “Clint @ rLM” value ([3]; intrinsic clearance, rat liver microsomes) of the same compound?
A: Its value is 121 µL/min/mg.

Q: What about the “Rem. @ rLM (%)” value [3, 10] of the same compound?
A: The value was 14.5%.

Q: And the solubility kinetic at 1 h [4]?
A: Its solubility kinetic at 1 h is 27.7 µM (≈ 13 µg/mL).

Q: And the IC50 (CYP1A2; microsomes)?
A: Its IC50 is over 50 µM.

Q: What about the IC50 (CYP2B6; microsomes) of the same compound?
A: Its IC50 is 7.48 µM.

Q: And the IC50 (CYP2C9; microsomes)?
A: The IC50 was over 45.3 µM.

Q: What about the IC50 (CYP2D6; microsomes) of the same compound?
A: Its IC50 is over 50 µM.

Q: And the IC50 (CYP3A4)?
A: Its IC50 is over 50 µM.

Q: And the “F [%]” value ([5]; Bioavailability)?
A: The value was 1.04%.

Q: What about the “Last time point for AUClast” value [5] of the same compound?
A: The value was 6 h.

Q: What about the “CL” value ([5]; clearance) of the same compound?
A: Its value is 231 L/h/kg.

Q: What about the “t1/2” value ([5]; half-life) of the same compound?
A: The value was 2.49 h.

Q: And the “AUCinf” value ([5]; plasma)?
A: The value was 43.3 ng·h/mL.

Q: And the “AUClast” value ([5]; plasma)?
A: The value was 39.1 ng·h/mL.

Q: And the “Cmax” value ([5]; plasma)?
A: The value was 68.7 ng/mL.

Q: And the “Tmax” value ([5]; plasma)?
A: The value was 0.25 h.

Q: What about the “AUCExtr [%]” value ([5]; plasma, extrapolated AUC) of the same compound?
A: The value was 9.56%.

Q: And the “Vz” value ([5]; volume of distribution)?
A: The value was 831 L/kg.

Q: With `CC(c1ccc(C(F)(F)F)cc1C(F)(F)F)n1cc(NC(=O)c2cnc(-c3ccccn3)s2)cn1` (stereo not shown) [Compound 78, N-(1-(1-(2,4-bis(trifluoromethyl)phenyl)ethyl)-1H-pyrazol-4-yl)-2-(pyridin-2-yl)thiazole-5-carboxamide] as the compound, how does the IC50 (ATF6; Homo sapiens, U2OS) read?
A: Its IC50 is 1 to 10 µM.

Q: What about the inhibition at 1 µM (ATF6; [11]) of the same compound?
A: Its inhibition at 1 µM is under 25%.

Q: What about the half-life at […], 1 µM ([1]; human liver microsomes) of the same compound?
A: Its half-life at […], 1 µM is 1.59 h.

Q: And the microsomal CLint at […], 1 µM [1, 6]?
A: The microsomal CLint at […], 1 µM was 14.5 µL/min/mg.

Q: And the “Rem. @ hLM (%)” value [1, 7]?
A: Its value is 80.4%.

Q: And the half-life at […], 1 µM ([2]; mouse liver microsomes)?
A: The half-life at […], 1 µM was 1.31 h.

Q: What about the microsomal CLint at […], 1 µM [2, 8] of the same compound?
A: The microsomal CLint at […], 1 µM was 17.6 µL/min/mg.

Q: What about the “Rem. @ mLM (%)” value [2, 9] of the same compound?
A: The value was 76.8%.

Q: And the microsomal CLint at […], 1 µM [3, 12]?
A: Its microsomal CLint at […], 1 µM is 22.3 µL/min/mg.

Q: And the half-life at […], 1 µM [3, 13]?
A: The half-life at […], 1 µM was 1.04 h.

Q: And the “Rem. @ rLM (%)” value [3, 10]?
A: Its value is 71.6%.

Q: And the IC50 (CYP1A2; [14])?
A: Its IC50 is 22.4 µM.

Q: And the IC50 (CYP2B6; [15])?
A: Its IC50 is 4.97 µM.

Q: And the IC50 (CYP2C19)?
A: Its IC50 is 5.27 µM.

Q: What about the IC50 (CYP2C8) of the same compound?
A: The IC50 was 1.8 µM.

Q: What about the IC50 (CYP2C9; [16]) of the same compound?
A: Its IC50 is 5.48 µM.

Q: And the IC50 (CYP2D6; [17])?
A: Its IC50 is 2.78 µM.

Q: What about the IC50 (CYP3A4) of the same compound?
A: Its IC50 is over 50 µM.

Q: What does the source list for `CC(c1ccc(C(F)(F)F)cc1C(F)(F)F)n1cc(NC(=O)c2nnc(-c3cnccn3)s2)cn1` (stereo not shown) [Compound 136, N-(1-(1-(2,4-bis(trifluoromethyl)phenyl)ethyl)-1H-pyrazol-4-yl)-5-(pyrazin-2-yl)-1,3,4-thiadiazole-2-carboxamide]?
A: IC50 (ATF6; Homo sapiens, U2OS): < 1 µM; inhibition at 1 µM (ATF6; [11]): > 50%; half-life at […], 1 µM ([1]; human liver microsomes): 1.57 h; microsomal CLint at […], 1 µM [1, 6]: 15 µL/min/mg; Rem. @ hLM (%) [1, 7]: 77.8%; half-life at […], 1 µM ([2]; mouse liver microsomes): 1.77 h; microsomal CLint at […], 1 µM [2, 8]: 13 µL/min/mg; Rem. @ mLM (%) [2, 9]: 78.7%; microsomal CLint at […], 1 µM [3, 12]: 44 µL/min/mg; half-life at 1 μM [3, 13]: 0.528 h; Rem. @ rLM (%) [3, 10]: 43.9%; solubility kinetic at 1 h ([4]; aqueous buffer, kinetic from dmso stock): 2.34 µM (≈ 1.2 µg/mL); IC50 (CYP1A2; [14]): > 50 µM; IC50 (CYP2B6; [15]): > 50 µM; IC50 (CYP2C19): > 50 µM; IC50 (CYP2C8): > 50 µM; IC50 (CYP2C9; [16]): > 50 µM; IC50 (CYP2D6; [17]): > 50 µM; IC50 (CYP3A4): > 50 µM
